Data taken from article PMC7849018 (Antimicrobial Agents and Chemotherapy, 2021).
“Also recorded” adds a separate entry of the source. Read-outs that look alike come from different tables or passages of the source.

Assays:
[1] = target: human mitochondrial POLRMT (Homo sapiens, UniProt O00411); experiment: Single nucleotide incorporation assay; format: biochemical; details: 500 μM nucleotide analog; relative to natural NTP at same concentration
[2] = target: human DNA polymerase beta (Homo sapiens, UniProt P06746); experiment: Enzymatic inhibition assay; format: biochemical; details: read-out: IC50 DNA pol β
[3] = target: T1, human DNA polymerase gamma (Homo sapiens, UniProt P54098); experiment: Enzymatic inhibition assay; format: biochemical; details: read-out: IC50 DNA pol γ
T1 sequence (P54098 1-1239): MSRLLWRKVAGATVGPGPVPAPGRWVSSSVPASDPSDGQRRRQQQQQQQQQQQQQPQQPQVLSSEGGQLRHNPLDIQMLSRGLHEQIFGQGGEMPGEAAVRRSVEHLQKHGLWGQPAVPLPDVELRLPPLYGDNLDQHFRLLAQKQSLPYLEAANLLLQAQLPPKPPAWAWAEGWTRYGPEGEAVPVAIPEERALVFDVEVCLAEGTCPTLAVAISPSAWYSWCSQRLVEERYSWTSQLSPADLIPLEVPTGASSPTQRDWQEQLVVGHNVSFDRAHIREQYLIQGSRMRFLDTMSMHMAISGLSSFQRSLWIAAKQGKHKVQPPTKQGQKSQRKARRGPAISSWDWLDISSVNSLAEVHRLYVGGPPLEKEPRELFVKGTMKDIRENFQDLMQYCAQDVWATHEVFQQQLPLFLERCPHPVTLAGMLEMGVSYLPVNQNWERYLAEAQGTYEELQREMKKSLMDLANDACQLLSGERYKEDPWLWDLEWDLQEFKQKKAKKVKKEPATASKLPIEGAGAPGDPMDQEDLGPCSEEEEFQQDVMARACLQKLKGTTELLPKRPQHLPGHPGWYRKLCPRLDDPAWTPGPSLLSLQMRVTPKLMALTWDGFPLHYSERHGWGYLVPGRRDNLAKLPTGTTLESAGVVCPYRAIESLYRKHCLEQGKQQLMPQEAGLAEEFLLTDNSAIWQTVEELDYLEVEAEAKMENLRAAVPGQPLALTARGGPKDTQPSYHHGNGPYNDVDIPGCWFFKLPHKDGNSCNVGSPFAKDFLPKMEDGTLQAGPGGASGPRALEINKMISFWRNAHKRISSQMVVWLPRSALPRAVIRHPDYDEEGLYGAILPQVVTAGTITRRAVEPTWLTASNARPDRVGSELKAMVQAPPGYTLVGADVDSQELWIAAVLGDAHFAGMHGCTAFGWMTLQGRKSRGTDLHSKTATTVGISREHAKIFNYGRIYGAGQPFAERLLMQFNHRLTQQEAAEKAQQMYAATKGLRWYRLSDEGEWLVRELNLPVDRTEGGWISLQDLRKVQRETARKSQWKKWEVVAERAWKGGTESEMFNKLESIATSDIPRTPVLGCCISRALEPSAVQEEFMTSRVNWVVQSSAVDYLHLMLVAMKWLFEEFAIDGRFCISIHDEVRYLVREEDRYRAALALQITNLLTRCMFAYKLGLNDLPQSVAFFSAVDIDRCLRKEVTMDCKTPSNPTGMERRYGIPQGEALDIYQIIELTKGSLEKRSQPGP
T1 sequence (Q9UHN1 26-485 partner limits assumed): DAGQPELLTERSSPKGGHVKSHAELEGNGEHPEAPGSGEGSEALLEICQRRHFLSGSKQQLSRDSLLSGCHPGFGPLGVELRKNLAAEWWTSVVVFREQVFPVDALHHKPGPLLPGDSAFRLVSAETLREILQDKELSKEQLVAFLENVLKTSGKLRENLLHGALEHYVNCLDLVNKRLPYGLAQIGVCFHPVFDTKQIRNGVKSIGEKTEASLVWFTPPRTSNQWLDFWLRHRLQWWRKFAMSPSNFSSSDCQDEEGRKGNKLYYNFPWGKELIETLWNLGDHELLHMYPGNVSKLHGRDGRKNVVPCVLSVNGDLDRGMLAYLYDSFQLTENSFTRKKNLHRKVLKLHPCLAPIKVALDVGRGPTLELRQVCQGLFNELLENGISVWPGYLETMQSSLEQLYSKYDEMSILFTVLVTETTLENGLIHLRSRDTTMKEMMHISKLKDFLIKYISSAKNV

human POLRMT = human POLRMT (Homo sapiens, UniProt O00411); experiment: Enzymatic inhibition assay; format: biochemical; details: read-out: IC50 POLRMT pol
Sequence of human POLRMT (O00411 42-1230): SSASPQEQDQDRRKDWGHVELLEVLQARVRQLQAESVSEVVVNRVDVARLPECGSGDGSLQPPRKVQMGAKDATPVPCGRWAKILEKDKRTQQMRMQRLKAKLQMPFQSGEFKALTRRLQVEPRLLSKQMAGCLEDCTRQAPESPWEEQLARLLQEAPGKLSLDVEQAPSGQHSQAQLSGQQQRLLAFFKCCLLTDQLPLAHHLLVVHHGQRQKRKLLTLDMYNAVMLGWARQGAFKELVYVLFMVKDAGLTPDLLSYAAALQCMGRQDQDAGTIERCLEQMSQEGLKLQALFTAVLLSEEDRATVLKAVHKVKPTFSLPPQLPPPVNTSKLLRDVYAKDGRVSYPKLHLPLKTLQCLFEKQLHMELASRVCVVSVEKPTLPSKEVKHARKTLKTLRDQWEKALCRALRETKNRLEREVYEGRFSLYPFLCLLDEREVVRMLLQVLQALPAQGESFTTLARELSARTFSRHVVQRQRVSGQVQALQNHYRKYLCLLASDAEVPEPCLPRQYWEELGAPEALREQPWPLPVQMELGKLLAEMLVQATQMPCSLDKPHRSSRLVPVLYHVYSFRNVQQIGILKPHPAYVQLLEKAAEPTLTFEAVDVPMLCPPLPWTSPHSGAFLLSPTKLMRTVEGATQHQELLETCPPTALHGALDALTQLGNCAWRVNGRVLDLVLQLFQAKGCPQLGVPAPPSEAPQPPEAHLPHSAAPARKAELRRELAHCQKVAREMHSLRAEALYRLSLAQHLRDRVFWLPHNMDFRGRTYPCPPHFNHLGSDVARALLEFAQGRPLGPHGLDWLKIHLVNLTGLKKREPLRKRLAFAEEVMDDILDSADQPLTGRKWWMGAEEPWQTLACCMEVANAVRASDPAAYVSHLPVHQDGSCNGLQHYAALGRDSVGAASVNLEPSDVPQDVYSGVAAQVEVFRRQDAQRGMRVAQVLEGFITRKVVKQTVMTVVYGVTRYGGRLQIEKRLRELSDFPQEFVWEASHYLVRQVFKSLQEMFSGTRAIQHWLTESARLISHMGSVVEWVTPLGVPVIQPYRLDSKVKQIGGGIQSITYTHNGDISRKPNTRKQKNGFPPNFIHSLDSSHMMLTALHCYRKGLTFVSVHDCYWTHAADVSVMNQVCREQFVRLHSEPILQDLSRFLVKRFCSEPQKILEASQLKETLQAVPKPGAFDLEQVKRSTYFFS

[4] = target: T2, human mitochondrial DNA Pol γ (Homo sapiens, UniProt P54098); experiment: Single nucleotide incorporation assay; format: biochemical; details: 50 μM nucleotide analog; relative to natural dNTP at same concentration
T2 sequence (P54098 1-1239): T1 sequence (P54098 1-1239)
T2 sequence (Q9UHN1 26-485 partner limits assumed): T1 sequence (Q9UHN1 26-485 partner limits assumed)

in vitro [5] = details: human, CC50, Myeloid progenitors; 11- to 14-day treatment
[6] = system: COX-1 (mitochondrial DNA-encoded cytochrome c oxidase, complex IV) protein level; experiment: Mitochondrial protein synthesis assay; format: cell-based; details: human, PC-3 cells
[7] = Mitochondrial respiration; format: cell-based; details: human, PC-3 cells, 3-day treatment
[8] = system: SDH-A (nuclear DNA-encoded succinate dehydrogenase, complex II) protein level; experiment: Mitochondrial protein synthesis assay; format: cell-based; details: human, PC-3 cells
[9] = Cellular ATP alongside the mitochondrial protein synthesis assay; details: human, PC-3 cells
[10] = system: mitochondrial DNA (mtDNA) in HepG2 cells; experiment: Mitochondrial DNA content by qPCR; format: cell-based, human; details: continual treatment for 10 days
[11] = Mitochondrial respiration; format: cell-based; details: human, HepG2 cells, 3-day treatment
[12] = Mitochondrial respiration; format: cell-based; details: human; for CC50 at 3 day: PHH cells (primary human hepatocytes); for CC50 at 3 days: primary human hepatocytes (PHH)
[13] = Mitochondrial respiration; format: cell-based; details: human, RPTEC cells, RPTECs, 3-day treatment
HepG2 = details: read-out: 5-day CC50 HepG2 cells Anaerobic (glucose)
PC-3 = details: read-out: 5-day CC50 PC-3 cells Anaerobic (glucose)
in vitro [14] = details: human
in vitro [15] = details: human; remark: listed apart in the source
HepG2 cells = experiment: Intracellular reactive oxygen species level; format: cell-based, human
Stimulated PBMC = details: 5-day treatment
[16] = system: HepG2 galactose-adapted cell line; details: read-out: 5-day CC50 HepG2 cells Aerobic (galactose)
[17] = system: PC-3 galactose-adapted cell line; details: CC50 galactose versus glucose culture
[18] = system: SARS-CoV-2 in human airway epithelial cells (HAE); details: read-out: EC50 against SARS-CoV-2; cited from earlier work
[19] = cited from earlier work
[20] = cited from earlier work; remark: listed apart in the source
[21] = moderate COVID-19, cited from earlier work
[22] = hospitalized patients with COVID-19; RDV for up to 10 days; cited from earlier work
[23] = pH 7.4, 3-day CC50 Spare respiration
[24] = healthy subjects, repeat-dose study 150 mg once daily, reversible
[25] = humans, repeated dosing of 150 mg

Sequence of human mitochondrial POLRMT (O00411 42-1230): as above

COc1nc(N)nc2c1ncn2[C@@H]1O[C@H](COP(=O)(N[C@@H](C)C(=O)OCC(C)(C)C)Oc2cccc3ccccc23)[C@@H](O)[C@@]1(C)O (some centres unmarked) [2’CMe-GTP, 2′CMe-GTP]
Rate of incorporation (% of natural dNTP or NTP), mtRNA polymerase [1]: 92% ± 33%

Cc1cn([C@H]2CC[C@@H](COP(=O)(O)OP(=O)(O)OP(=O)(O)O)O2)c(=O)[nH]c1=O [3′dTTP]
IC50 [2]: 1.9 µM
IC50 [3]: 1.2 µM

Nc1nc2c(ncn2[C@@H]2O[C@H](COP(=O)(O)OP(=O)(O)OP(=O)(O)O)C[C@H]2O)c(=O)[nH]1 [3′deoxy GTP, 3′-deoxy GTP]
IC50 (human POLRMT): 4.2 µM

CC(C)C(=O)OC[C@@]1(N=[N+]=[N-])O[C@@H](n2ccc(N)nc2=O)[C@H](OC(=O)C(C)C)[C@@H]1OC(=O)C(C)C [4’CN-CTP, 4′-CN-CTP]
Rate of incorporation (% of natural dNTP or NTP), mtRNA polymerase [1]: 112% ± 10%

Nc1ncn([C@H]2C[C@H](O)[C@@H](COP(=O)(O)OP(=O)(O)OP(=O)(O)O)O2)c(=O)n1 [5-aza-2′-dCTP, 5-aza-2′-deoxyCTP]
Rate of incorporation (% of natural dNTP or NTP), DNA polymerase γ [4]: 79% ± 8%

O=c1[nH]cc(F)c(=O)[nH]1 [5-fluorouracil, reference compound]
CC50 (in vitro [5]): 2.2 ± 0.6 µM

O=C(N[C@H](CO)[C@H](O)c1ccc([N+](=O)[O-])cc1)C(Cl)Cl [Chloramphenicol, chloramphenicol, reference compound]
CC50 at 5 days [6]: 2.6 ± 0.6 µM
CC50 at 3 day ([7]; 3-day CC50 Cellular ATP): > 50 µM
CC50 at 3 day ([7]; 3-day CC50 Total DNA content): > 50 µM
CC50 at 3 day [7, 23]: 4.8 ± 1.3 µM
CC50 at 5 days [8]: > 25 µM
CC50 at 5 days [9]: 14.1 ± 3.6 µM

N#C[C@@]1(c2ccc3c(N)ncnn23)O[C@H](CO)[C@@H](O)[C@H]1O [GS-441524]
effect on mtDNA content (in words) [10]: overall minimal
CC50 at 5 days [6]: > 100 µM
CC50 at 3 day ([7]; 3-day CC50 Cellular ATP): > 100 µM
CC50 at 3 day ([7]; 3-day CC50 Total DNA content): > 100 µM
CC50 at 3 day [7, 23]: > 100 µM
CC50 at 3 day ([11]; 3-day CC50 Cellular ATP): > 100 µM
CC50 at 3 day ([11]; 3-day CC50 Total DNA content): > 100 µM
CC50 at 3 day [11, 23]: > 100 µM
CC50 at 3 day [12]: > 100 µM
CC50 at 3 days [12]: > 100 µM
CC50 at 3 days ([12]; pH 7.4): > 100 µM
CC50 at 3 day ([13]; 3-day CC50 Cellular ATP): > 100 µM
CC50 at 3 day ([13]; 3-day CC50 Total DNA content): > 100 µM
CC50 at 3 day [13, 23]: > 100 µM
CC50 at 5 days [8]: > 100 µM
CC50 (HepG2): > 100 µM
CC50 (PC-3): > 100 µM
CC50 (in vitro [5]): 11.7 ± 9.6 µM
CC50 at 5 days (in vitro [14]): > 100 µM
CC50 at 5 days (in vitro [15]): > 100 µM
CC50 at 5 days [9]: > 100 µM

[H]/N=C(/N)N/C(=N/[H])NCCc1ccccc1 [Phenformin, phenformin, reference compound]
CC50 at 3 day [12]: 9.7 ± 4.5 µM
CC50 at 3 days [12]: 22.1 ± 1.9 µM
CC50 at 3 days ([12]; pH 7.4): 1.9 ± 0.5 µM

CCC(CC)COC(=O)[C@H](C)N[P@](=O)(OC[C@H]1O[C@@](C#N)(c2ccc3c(N)ncnn23)[C@H](O)[C@@H]1O)Oc1ccccc1 [RDV, Remdesivir]
decrease in cell viability (HepG2 cells; 100 μM, 24-h incubation): 60%
increase in ROS levels (HepG2 cells; 100 μM, 24-h incubation, vs DMSO control): 60%
effect on ROS levels (HepG2 cells; 3.1 to 50 μM, 24-h incubation): no significant increase in ROS levels; also recorded: no effect on ROS
effect on mtDNA content (in words) [10]: lack of dose response
CC50 at 5 days [6]: 8.9 ± 1.1 µM
CC50 at 3 day ([7]; 3-day CC50 Cellular ATP): 24 ± 1.4 µM
CC50 at 3 day [7, 23]: 2.5 ± 0.1 µM
CC50 at 3 day ([11]; 3-day CC50 Cellular ATP): 7.9 ± 0.1 µM
CC50 at 3 day ([11]; 3-day CC50 Total DNA content): 6.3 ± 0.9 µM
CC50 at 3 day [11, 23]: 10.6 ± 0.1 µM
CC50 at 3 day [12]: 7.8 ± 2.2 µM
CC50 at 3 days [12]: 13.4 ± 1.7 µM
CC50 at 3 days ([12]; pH 7.4): 7.6 ± 1.9 µM
CC50 at 3 day ([13]; 3-day CC50 Cellular ATP): 16.9 ± 4.1 µM
CC50 at 3 day ([13]; 3-day CC50 Total DNA content): 14.3 ± 3.3 µM
CC50 at 3 day [13, 23]: 7.3 ± 2.7 µM
CC50 at 5 days [8]: 8.6 ± 1.3 µM
CC50 (Stimulated PBMC): 14.8 ± 5.8 µM
CC50 [16]: 11.1 ± 1.2 µM
enhancement of cytotoxicity by aerobic conditions [17]: 6 fold
EC50 [18]: 0.0099 µM
treatment-emergent grade 1 or 2 ALT elevations [19, 24]: 50%
treatment-emergent grade 1 or 2 AST elevations [19, 24]: 44%
plasma Cmax [19, 25]: 2,720 ng/ml
t1/2 [19, 25]: 1.11 h
Cmax ([19]; read-out: plasma Cmax, humans, repeated dosing of 150 mg): 4.5 µM
adverse events of elevations in ALT ([20]; 5-day RDV treatment): 6%
adverse events of elevations in AST ([20]; 5-day RDV treatment): 5%
adverse events of elevations in ALT ([20]; 10-day RDV treatment): 8%
adverse events of elevations in AST ([20]; 10-day RDV treatment): 7%
CC50 (in vitro [5]): 5.1 ± 2.3 µM
CC50 at 5 days (in vitro [15]): 1.4 ± 0.1 µM
Grade 3 or 4 adverse events, ALT ([21]; 5-day RDV): 2%
Grade 3 or 4 adverse events, AST ([21]; 5-day RDV): 3%
adverse events of elevations in ALT ([21]; 5-day RDV): 34%
adverse events of elevations in AST ([21]; 5-day RDV): 32%
Grade 3 or 4 adverse events, ALT ([21]; 10-day RDV): 3%
Grade 3 or 4 adverse events, AST ([21]; 10-day RDV): 1%
adverse events of elevations in ALT ([21]; 10-day RDV): 32%
adverse events of elevations in AST ([21]; 10-day RDV): 32%
adverse events of increased amino transferase levels, including ALT, AST, or both [22]: 6 % of subjects
CC50 at 5 days [9]: 11.3 ± 3.3 µM

CC1=CC(=O)c2ccccc2C1=O [menadione, reference compound]
increase in ROS levels (HepG2 cells; 30-minute incubation (100 or 200 μM)): > 3 fold
